Test results: patent US5688960A, “Substituted oximes, hydrazones and olefins useful as neurokinin antagonists” (Schering Corporation, priority 1996, dated 1997)
pKi: −log10 of the molar value.

Columns and labels:
[1] = target: T1, human neurokinin 2 (NK2) receptor (Homo sapiens, UniProt P21452); assay: Neurokinin receptor binding assay, [3H]-Neurokinin A competition, CHO cell membranes (NK2); conditions: [3H]-Neurokinin A 1.0 nM
T1 construct: expressed in transfected cells; host or cells: Chinese Hamster ovary (CHO) cells; membranes
T1 sequence (P21452 1-398): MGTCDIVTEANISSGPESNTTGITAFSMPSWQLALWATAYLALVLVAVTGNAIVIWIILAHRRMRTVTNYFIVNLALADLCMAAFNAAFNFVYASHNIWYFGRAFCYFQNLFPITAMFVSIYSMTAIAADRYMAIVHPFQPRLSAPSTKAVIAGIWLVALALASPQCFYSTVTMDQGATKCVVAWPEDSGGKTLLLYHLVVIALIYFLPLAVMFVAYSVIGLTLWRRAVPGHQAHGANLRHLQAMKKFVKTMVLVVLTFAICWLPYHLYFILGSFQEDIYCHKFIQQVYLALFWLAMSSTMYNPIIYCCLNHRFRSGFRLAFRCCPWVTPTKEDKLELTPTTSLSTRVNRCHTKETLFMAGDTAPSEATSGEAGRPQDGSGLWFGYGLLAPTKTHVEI
Protocol: (§1) Chinese Hamster ovary (CHO) cells transfected with the coding regions for the human neurokinin 1 (NK1) of the human neurokinin 2 (NK2) receptors are grown in Dulbecco's minimal essential medium supplemented with 10% fetal calf serum, 0.1 mM non-essential amino acids, 2 mM glutamine, 100 units/ml of penicillin and streptomycin, and 0.8 mg of G418/ml at 37° C. in a humidified atmosphere containing 5% CO2.
(§2) Cells are detached from T-175 flasks with a sterile solution containing 5 mM EDTA in phosphate buffered saline. Cells are harvested by centrifugation and washed in RPMI media at […] for 5 minutes. […]
(§3) To assay receptor binding, 50 μl of [^3 H]-Substance P (9-Sar, 11-Met) (specific activity 41 Ci/mmol) (Dupont-NEN) (0.8 nM for the NK-1 assay) or [^3 H]-Neurokinin A (specific activity 114 Ci/mmole) (Zenca) (1.0 nM for the NK-2 assay) is added to tubes containing buffer (50 mM Tris-HCl (pH 7.4) with 1 mM MnCl2 and 0.2% Bovine Serum Albumin) and either DMSO or test compound. […] Filters are added to 6 mls of Ready-Safe liquid scintillation cocktail and quantified by liquid scintillation spectrometry in a LKB 1219 RackBeta counter. Non-specific binding is determined by the addition of either 1 μM of CP-99994 (NK-1) or 1 μM SR-48968 (NK-2) (both synthesized by the chemistry department of Schering-Plough Research Institute). […]

[2] = target: T2, human neurokinin 1 (NK1) receptor (Homo sapiens, UniProt P25103); assay: Neurokinin receptor binding assay, [3H]-Substance P competition, CHO cell membranes (NK1); conditions: [3H]-Substance P 0.8 nM
T2 construct: expressed in transfected cells; host or cells: Chinese Hamster ovary (CHO) cells; membranes
T2 sequence (P25103 whole entry): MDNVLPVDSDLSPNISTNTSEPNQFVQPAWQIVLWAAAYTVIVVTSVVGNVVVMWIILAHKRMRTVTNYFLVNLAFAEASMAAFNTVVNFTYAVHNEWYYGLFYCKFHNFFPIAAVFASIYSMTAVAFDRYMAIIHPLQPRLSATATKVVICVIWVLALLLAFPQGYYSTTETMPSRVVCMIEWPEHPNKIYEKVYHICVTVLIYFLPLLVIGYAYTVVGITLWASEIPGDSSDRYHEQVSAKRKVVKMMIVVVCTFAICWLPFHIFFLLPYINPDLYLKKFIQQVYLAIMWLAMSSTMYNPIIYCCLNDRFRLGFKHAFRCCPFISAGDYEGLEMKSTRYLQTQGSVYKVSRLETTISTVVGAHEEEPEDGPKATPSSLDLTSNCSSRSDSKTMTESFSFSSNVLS
Protocol: as §1, §2, §3

Row | SMILES | pKi [1] | pKi [2]
1 | OCCON=C(COCc1cc(C(F)(F)F)cc(C(F)(F)F)c1)C(CCN1CCC(O)(c2ccccc2)CC1)c1csc2ccccc12 (stereo not shown) [Example 4D] | 7.64 | 8.74
2 | CON=C(CN(C)C(=O)c1cc(C)cc(C)c1)C(CCN1CCC(O)(c2ccccc2)CC1)c1csc2ccccc12 (stereo not shown) [Example 7B] | 8.35 | 9.19
